The source of these data is US4352803A, “Novel naphthyridine derivatives, intermediates thereof, processes for preparation thereof, and use thereof” (Dainippon Pharmaceutical Co., Ltd., priority 1978, dated 1982).

Converted amounts (≈) assume the structure as drawn. “Also recorded” adds a separate entry of the source. Where two headings read alike, the source gives them in different places. Some results are limits rather than exact numbers.

The test system of data set [1] is Staphylococcus aureus 209P JC-1. Description: In vitro antibacterial activity (MIC), Staphylococcus aureus 209P JC-1. Format: cell-based. The conditions noted are these: Staphylococcus aureus 209P JC-1; read-out: minimum inhibitory concentration (MIC). An excerpt:
(§1) (MIC) (μg/ml) Method; Chemotherapy, 22(6), 1126 (1974)

In data set [2] the test system is Staphylococcus aureus No. 50774. Nature of the data set: In vitro antibacterial activity (MIC), Staphylococcus aureus No. 50774. In kind it is cell-based. The conditions noted are these: Staphylococcus aureus No. 50774; read-out: minimum inhibitory concentration (MIC).
Text: as §1

Data set [3] relates to Streptococcus faecalis P-2473. Nature of the data set: In vitro antibacterial activity (MIC), Streptococcus faecalis P-2473. In kind it is cell-based. The conditions noted are these: Enterococcus faecalis, P2473; Streptococcus faecalis P-2473; read-out: minimum inhibitory concentration (MIC).
Text: as §1

Data set [4] has as its system Streptococcus pyogenes 65A. Nature of the data set: In vitro antibacterial activity (MIC), Streptococcus pyogenes 65A. Format: cell-based. The conditions noted are these: Streptococcus pyogenes 65A; read-out: minimum inhibitory concentration (MIC).
Text: as §1

For data set [5], the system named is Corynebacterium pyogenes C-21. Description: In vitro antibacterial activity (MIC), Corynebacterium pyogenes C-21. Particulars: Rhodococcus (subgen. Prescottella) equi, C21; Corynebacterium pyogenes C-21; read-out: minimum inhibitory concentration (MIC). Format: cell-based.
Text: as §1

Data set [6] has as its system Escherichia coli NIHJ JC-2. Nature of the data set: In vitro antibacterial activity (MIC), Escherichia coli NIHJ JC-2. Format: cell-based.
Text: as §1

Data set [7] has as its system Escherichia coli P-5101. Description: In vitro antibacterial activity (MIC), Escherichia coli P-5101. Format: cell-based.
Text: as §1

Data set [8] concerns Escherichia coli P-140a. Nature of the data set: In vitro antibacterial activity (MIC), Escherichia coli P-140a. Particulars: read-out: minimum inhibitory concentration (MIC). In kind it is cell-based.
Text: as §1

Data set [9] deals with Salmonella typhimurium 8-9. Description: In vitro antibacterial activity (MIC), Salmonella typhimurium 8-9. Particulars: Salmonella enterica, read-out: minimum inhibitory concentration (MIC). In kind it is cell-based.
Text: as §1

Data set [10] deals with Salmonella enteritidis No. 1891. Nature of the data set: In vitro antibacterial activity (MIC), Salmonella enteritidis No. 1891. In kind it is cell-based. The conditions noted are these: Salmonella enterica; Salmonella enteritidis No. 1891; read-out: minimum inhibitory concentration (MIC).
Text: as §1

Data set [11] has as its system Shigella flexneri 2a. Nature of the data set: In vitro antibacterial activity (MIC), Shigella flexneri 2a. In kind it is cell-based. The conditions noted are these: read-out: minimum inhibitory concentration (MIC).
Text: as §1

Data set [12] relates to Shigella flexneri 4a P-330. Nature of the data set: In vitro antibacterial activity (MIC), Shigella flexneri 4a P-330. In kind it is cell-based. Particulars: 4AP330, read-out: minimum inhibitory concentration (MIC).
Text: as §1

The test system of data set [13] is Klebsiella pneumoniae No. 13. Nature of the data set: In vitro antibacterial activity (MIC), Klebsiella pneumoniae No. 13. In kind it is cell-based.
Text: as §1

For data set [14], the system named is Enterobacter cloacae P-2540. Nature of the data set: In vitro antibacterial activity (MIC), Enterobacter cloacae P-2540. In kind it is cell-based.
Text: as §1

Data set [15] deals with Pseudomonas aeruginosa Tsuchijima. Nature of the data set: In vitro antibacterial activity (MIC), Pseudomonas aeruginosa Tsuchijima. In kind it is cell-based. Particulars: read-out: minimum inhibitory concentration (MIC).
Text: as §1

For data set [16], the system named is Pseudomonas aeruginosa No. 12. Nature of the data set: In vitro antibacterial activity (MIC), Pseudomonas aeruginosa No. 12. In kind it is cell-based.
Text: as §1

The subject of data set [17] is Serratia marcescens IFC 3736. Nature of the data set: In vitro antibacterial activity (MIC), Serratia marcescens IFC 3736. Format: cell-based.
Text: as §1

Data set [18] concerns Proteus morganii Kono. Nature of the data set: In vitro antibacterial activity (MIC), Proteus morganii Kono. In kind it is cell-based. Particulars: Morganella morganii, read-out: minimum inhibitory concentration (MIC).
Text: as §1

Data set [19] concerns Proteus mirabilis P-2381. Description: In vitro antibacterial activity (MIC), Proteus mirabilis P-2381. In kind it is cell-based.
Text: as §1

Data set [20] is described as follows: in vivo. Particulars: mouse, in vivo, po. The procedure: The number of dead mice was counted after 7 days, and the value of median lethal dose (LD50, mg/kg) was calculated in accordance with the Behrens-Kaerber method.
Data set [21] deals with Escherichia coli P-5101. Nature of the data set: in vivo efficacy against systemic infection in mice, Escherichia coli P-5101. Particulars: P5101, in Mus musculus, po, 168 h.
Protocol: Male mice (ddY) weighing about 20 g
Intraperitoneal infection with (about
9 × 10^6 cells/mouse) of a bacterial
(§2) suspension in trypto-soy broth with 4% mucin.
(§3) Twice, about 5 minutes and 6 hours after infection.
Data set [22] has as its system Pseudomonas aeruginosa No. 12. Nature of the data set: in vivo efficacy against systemic infection in mice, Pseudomonas aeruginosa No. 12. Particulars: NO.12, in Mus musculus, po, 168 h.
Protocol: Male mice (ddY) weighing about 20 g
(3) Pseudomonas aeruginosa No. 12;
(about 5 × 10^3 cells/mouse) of a bacterial
as §2, §3
The numerals in the table show ED50 (mg/kg). ED50 values were
In data set [23] the test system is Staphylococcus aureus No. 50774. Nature of the data set: in vivo efficacy against systemic infection in mice, Staphylococcus aureus No. 50774. The conditions noted are these: NO.50774, in Mus musculus, po, 336 h.
Protocol: Male mice (ddY) weighing about 20 g
Intravenous infection with (about
5 × 10^8 cells/mouse) of a bacterial
as §3
Data set [24] concerns Gram-positive bacteria and Gram-negative bacteria. Nature of the data set: In vitro antibacterial activity against 19 strains of bacteria (overall). In kind it is cell-based. Particulars: comparisons are with compounds of the invention.
Text: as §1

Data set [25] relates to Gram-positive and Gram-negative bacteria. Nature of the data set: in vivo therapeutic efficacy against systemic infections in mice (overall). More on the design: species or system mice (ddY).
Setting [26] is: P5101, Escherichia coli P-5101, read-out: minimum inhibitory concentration (MIC).
[27] abbreviates: Klebsiella pneumoniae No. 13, read-out: minimum inhibitory concentration (MIC).
Where [28] appears, read: P2540, Enterobacter cloacae P-2540, read-out: minimum inhibitory concentration (MIC).
Setting [29] is: Pseudomonas aeruginosa Tsuchijima.
Setting [30] is: Pseudomonas aeruginosa No. 12, read-out: minimum inhibitory concentration (MIC).
The mark [31] stands for this setting: IFC3736, Serratia marcescens IFC 3736, read-out: minimum inhibitory concentration (MIC).
[32] abbreviates: P2381, Proteus mirabilis P-2381, read-out: minimum inhibitory concentration (MIC).
Setting [33] is: Escherichia coli, NIHJJC2, read-out: minimum inhibitory concentration (MIC).

A word on the LD50: it is the dose at which mortality reaches 50%. Low readings indicate a more toxic substance, high ones a less toxic substance. The term ED50 denotes the midpoint of the dose-response relation. Low values mean an effect at a small dose, high ones a need for a large dose.

As to `C=Cn1cc(C(=O)O)c(=O)c2cc(Cl)c(N3CCNCC3)nc21` [Compound 4, 6-Chloro-1,4-dihydro-4-oxo-7-(1-piperazinyl)-1-vinyl-1,8-naphthyridine-3-carboxylic acid], the MIC in data set [1] turned out to be 3.13 µg/mL (≈ 9.35 µM); in [2] it was 6.25 µg/mL (≈ 18.7 µM); in data set [3], 12.5 µg/mL (≈ 37.3 µM); in data set [4], 6.25 µg/mL (≈ 18.7 µM); in [5], 6.25 µg/mL (≈ 18.7 µM); in [6] (NIHJJC2, Escherichia coli NIHJ JC-2, read-out: minimum inhibitory concentration (MIC)) it was 0.2 µg/mL (≈ 0.597 µM). In addition, the MIC turned out to be 0.1 µg/mL (≈ 0.299 µM) in data set [7] (setting [26]); 0.1 µg/mL (≈ 0.299 µM) in data set [8] (P140A, Escherichia coli P-140a); 0.2 µg/mL (≈ 0.597 µM) in [9] (Salmonella typhimurium 8-9); 0.2 µg/mL (≈ 0.597 µM) in [10]; 0.2 µg/mL (≈ 0.597 µM) in [11]; 0.2 µg/mL (≈ 0.597 µM) in data set [12]. Moreover, the MIC amounted to 0.39 µg/mL (≈ 1.17 µM) in [13] (setting [27]); 0.2 µg/mL (≈ 0.597 µM) in [14] (setting [28]); 1.56 µg/mL (≈ 4.66 µM) in data set [15] (setting [29]); 1.56 µg/mL (≈ 4.66 µM) in [16] (setting [30]); 0.78 µg/mL (≈ 2.33 µM) in [17] (setting [31]); 0.2 µg/mL (≈ 0.597 µM) in [18] (Proteus morganii Kono). The MIC in data set [19] (setting [32]) was 0.78 µg/mL (≈ 2.33 µM). This compound showed an LD50 at 168 h in data set [20] greater than 2000 mg/kg. The figures for the ED50 in data set [21], in data set [22] and in data set [23] were 4.8 mg/kg, 18.5 mg/kg and roughly 100 mg/kg, respectively.

Take `CCn1cc(C(=O)O)c(=O)c2ccc(N3CCNCC3)nc21` [Compound A, 1-Ethyl-1,4-dihydro-4-oxo-7-(1-piperazinyl)-1,8-naphthyridine-3-carboxylic acid]: the MIC in data set [1] is 25 µg/mL (≈ 82.7 µM); in [2], 50 µg/mL (≈ 165 µM); in [3], greater than 100 µg/mL; in data set [4], 50 µg/mL (≈ 165 µM); in [5], 50 µg/mL (≈ 165 µM); in data set [6] (setting [33]) it was 6.25 µg/mL (≈ 20.7 µM). The MIC in data set [7] (setting [26]) came out at 3.13 µg/mL (≈ 10.4 µM); in data set [8] (Escherichia coli) it was 6.25 µg/mL (≈ 20.7 µM); in data set [9] (TYPHIMURIUM), 6.25 µg/mL (≈ 20.7 µM); in [10], 1.56 µg/mL (≈ 5.16 µM); in [11], 6.25 µg/mL (≈ 20.7 µM); in data set [12] it was 12.5 µg/mL (≈ 41.3 µM). Besides, the MIC in data set [13] (Klebsiella pneumoniae, NO.13, read-out: minimum inhibitory concentration (MIC)) was found to be 12.5 µg/mL (≈ 41.3 µM); in [14] (Enterobacter cloacae, P2540, read-out: minimum inhibitory concentration (MIC)), 6.25 µg/mL (≈ 20.7 µM); in [15] (setting [29]), 25 µg/mL (≈ 82.7 µM); in data set [16] (setting [30]), 25 µg/mL (≈ 82.7 µM); in [17] (Serratia marcescens, IFC3736, read-out: minimum inhibitory concentration (MIC)), 12.5 µg/mL (≈ 41.3 µM); in data set [18], 6.25 µg/mL (≈ 20.7 µM). Moreover, in data set [19] (setting [32]), the MIC amounted to 25 µg/mL (≈ 82.7 µM). The “antibacterial activity (in words)” value in data set [24] is “much inferior antibacterial activity; also recorded: clearly inferior”. Further, the “therapeutic effect / in vivo antibacterial activity (in words)” value in [25] (systemic infections with Gram-positive and Gram-negative bacteria) is reported as “clearly inferior”. The ED50 was greater than 200 mg/kg in [22] and greater than 100 mg/kg in data set [23].

As for `CC1(C)S[C@@H]2[C@H](NC(=O)[C@H](N)c3ccccc3)C(=O)N2[C@H]1C(=O)O` [H, D-α-Aminobenzylpenicillin], the MIC amounted to 0.05 µg/mL (≈ 0.143 µM) in [1]; 0.1 µg/mL (≈ 0.286 µM) in data set [2]; 1.56 µg/mL (≈ 4.46 µM) in data set [3]; 0.025 µg/mL (≈ 0.0715 µM) in data set [4]; 1.56 µg/mL (≈ 4.46 µM) in data set [5]; 6.25 µg/mL (≈ 17.9 µM) in [6] (setting [33]). In addition, the MIC is 6.25 µg/mL (≈ 17.9 µM) in data set [7] (Escherichia coli, P5101, read-out: minimum inhibitory concentration (MIC)); 200 µg/mL (≈ 572 µM) in data set [8] (P140A, Escherichia coli P-140a); 0.39 µg/mL (≈ 1.12 µM) in data set [9] (Salmonella typhimurium 8-9); 0.2 µg/mL (≈ 0.572 µM) in [10]; 3.13 µg/mL (≈ 8.96 µM) in data set [11]; 6.25 µg/mL (≈ 17.9 µM) in data set [12]. Further, the MIC in data set [13] (setting [27]) was 100 µg/mL (≈ 286 µM); in [14] (setting [28]), greater than 200 µg/mL; in data set [15] (Pseudomonas aeruginosa) it was greater than 200 µg/mL; in [16] (Pseudomonas aeruginosa, NO.12, read-out: minimum inhibitory concentration (MIC)) it was greater than 200 µg/mL; in data set [17] (setting [31]), 25 µg/mL (≈ 71.5 µM); in data set [18] (Proteus morganii Kono) it was 100 µg/mL (≈ 286 µM). Besides, the MIC in [19] (Proteus mirabilis, P2381, read-out: minimum inhibitory concentration (MIC)) stood at 3.13 µg/mL (≈ 8.96 µM). In addition, the “therapeutic effects in vivo against Gram-negative bacteria, relative to compounds 1, 1' and 2” value in data set [25] (Gram-negative, particularly Pseudomonas aeruginosa) is on record as “clearly inferior”. This compound came in with an LD50 at 168 h in [20] greater than 5000 mg/kg. Further, the ED50 in data set [21] was 43.5 mg/kg; in data set [22], greater than 400 mg/kg; in data set [23], 2.2 mg/kg.
